Source: patent US20020051982A1, “Novel BLR molecules affecting antibiotic susceptibility” (priority 2000, published 2002)
Values after ≈ are worked out from the molar mass of the structure shown. Where two headings read alike, the source gives them in different places.

What was measured:
Assay type in all cases: cell-based, E. coli
AW1045 = experiment: E-test susceptibility on LB agar, strain AW1045; parameters: unit not given here
S26su^+ blr^+ = experiment: MIC for ampicillin, leuX amber suppressor host S26su^+, blr^+; conditions: plasmid None;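 further: MIC in µg per mL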
ASS11rif (blr^+) = experiment: MIC for ampicillin, complementation test, wild type host; conditions: Escherichia coli
[1] = tested on: ASS111rif blr::TnphoA (=RW583); experiment: E-test susceptibility on LB agar, strain RW583 without or with plasmids; parameters: unit not given here
[2] = tested on: blr::TnphoA insertion mutant; experiment: Decline in optical density of growing cultures; conditions: insertion mutant versus wild type
S26 blr^+ = experiment: MIC for ampicillin, non-suppressor S26 host, blr^+; conditions: plasmid None;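 further: MIC in µg per mL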
S26su^+ blr::TnphoA = experiment: MIC for ampicillin, leuX amber suppressor host S26su^+, blr::TnphoA;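 further: MIC in µg per mL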
S26 blr::TnphoA = experiment: MIC for ampicillin, non-suppressor S26 host, blr::TnphoA;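 further: MIC in µg per mL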
WY100 = experiment: E-test susceptibility on LB agar, strain WY100; parameters: unit not given here
RW583 = experiment: Antibiotic susceptibility of the blr::TnphoA insertion mutant compared with the parent; conditions: for effect of the insertion on susceptibility: transconjugant RW583 (blr::TnphoA) versus parental strain
Source text: Donor E. coli K 12 strain S17-1 λpir (Tp^rSm^rrecA, thi, pro, hsdR^−M^+RP4;2-Tc:Mu:KmTn7,λpir; George and Levy. 1983. J Bacteriol 1983 Aug; 155 (2): 531-48) containing a conjugatable transposon-delivery plasmid pUT/Km (able to replicate only in the donor) which bore mini-Tn5phoA (de Lorenzo, V. & Timmis, K. N. Meth. Enzymol. 235, 386-404 (1994)) was mated with recipient ASS111rif and plated on kanamycin/rifamycin. Transconjugant RW583 had both PhoA activity and a 2-4 fold enhanced susceptibility to a wide spectrum of antibiotics […] including cephalosporins and imipenem (Table 1) as well as cycloserine and bacitracin, while susceptibility to tetracycline, chloramphenicol, nalidixic acid, norfloxacin, gentamicin, fosfomycin or valinomycin was not affected. The insertion was transduced (Provence, D. L. & Curtiss, R. I. in Methods for General and Molecular Bacteriology (ed. Gerhardt, P., Murry, R. G. E., Wood, W. A. & Kreig, N. R.) 317-347 (American Society for Microbiology, Washington D.C. 1994)) by bacteriophage P1 into other E. coli K12 strains, where it had the same effect on susceptibility (Table 1).
The cloned 358 base pairs region restored the wild type phenotype to the hypersusceptible strain bearing blr::TnphoA, regardless of orientation with respect to the lac promoter (Table 1, pRW23C vs pRW23D). The HindIII/PstI fragment of pACYC 184 (carrying the tet promoter and part of the tet gent) was replaced by the HindIII/PstI fragment from pRW23D. […] Therefore the 358 base pairs region appeared to contain all the information needed for complementation.

AW1045 blr::TnphoA = experiment: E-test susceptibility on LB agar, strain AW1045 blr::TnphoA; parameters: unit not given here
WY100 blr::TnphoA = experiment: E-test susceptibility on LB agar, strain WY100 blr::TnphoA; parameters: unit not given here
[3] = tested on: RW583 (ASS111rifblr::TnphoA); experiment: MIC for ampicillin, complementation in RW583; conditions: Escherichia coli
[4] = RW58s + pRW23D (blr^+, 358 base pairs)
[5] = RW583 + pRW23A (blr^+, 680 base pairs)
[6] = RW583 + pRW23C (blr^+, 358 base pairs)
[7] = strain ASS111rif blr::TnphoA (=RW583), no plasmid
[8] = Blr::TnphoA, pL24tag1 (amber blr)
[9] = Blr::TnphoA, pL39tag3 (amber L39 blr)
[10] = blr::TnphoA, pRW23C (wild type blr)

Compound: CC1(C)S[C@@H]2[C@H](NC(=O)[C@H](N)c3ccccc3)C(=O)N2[C@H]1C(=O)O [Ampicillin]
- susceptibility (E-test strip) (AW1045): 3
- MIC for ampicillin (S26su^+ blr^+): 3.5 µg·mL
- MIC (ASS11rif (blr^+); host ASS11rif blr^+, plasmid pRW23C (wild type blr), read-out: MIC for ampicillin): 1 µg/mL (≈ 2.86 µM)
- MIC (ASS11rif (blr^+); read-out: MIC for ampicillin, host ASS11rif blr^+, plasmid None): 1.1 µg/mL (≈ 3.15 µM)
- susceptibility (E-test strip) [1, 4]: 2
- susceptibility (E-test strip) ([1]; RW583 + pACYC184 (vector)): 0.5
- susceptibility (E-test strip) [1, 5]: 3
- susceptibility (E-test strip) [1, 6]: 2
- susceptibility (E-test strip) ([1]; RW583 + pUC19Sp^R (vector)): 0.25
- susceptibility (E-test strip) [1, 7]: 0.5
- drug concentration required for decline in optical density of growing cultures [2]: lower drug concentration
- MIC for ampicillin (S26 blr^+): 3.3 µg·mL
- MIC for ampicillin (S26su^+ blr::TnphoA; [8]): 2.1 µg·mL
- MIC for ampicillin (S26su^+ blr::TnphoA; [9]): 0.2 µg·mL
- MIC for ampicillin (S26su^+ blr::TnphoA; [10]): 3.0 µg·mL
- MIC for ampicillin (S26su^+ blr::TnphoA; blr::TnphoA, pUC19-Sp^R (none)): 1.1 µg·mL
- MIC for ampicillin (S26su^+ blr::TnphoA; blr::TnphoA, plasmid None): 1.0 µg·mL
- MIC for ampicillin (S26 blr::TnphoA; [8]): 0.9 µg·mL
- MIC for ampicillin (S26 blr::TnphoA; [9]): 0.2 µg·mL
- MIC for ampicillin (S26 blr::TnphoA; [10]): 2.8 µg·mL
- MIC for ampicillin (S26 blr::TnphoA; blr::TnphoA, pUC19-Sp^R (none)): 0.5 µg·mL
- MIC for ampicillin (S26 blr::TnphoA; blr::TnphoA, plasmid None): 0.5 µg·mL
- susceptibility (E-test strip) (WY100): 3
- restoration of resistance by plasmid (RW583; blr::TnphoA strain with pRWA7 (no vector-derived promoter for blr)): completely restored resistance
- susceptibility (E-test strip) (AW1045 blr::TnphoA): 0.75
- susceptibility (E-test strip) (WY100 blr::TnphoA): 0.75
- MIC ([3]; host RW583, plasmid None): 0.13 µg/mL (≈ 0.372 µM)
- MIC ([3]; host RW583, plasmid PQ13tag1 (amber Q13 blr)): 1.1 µg/mL (≈ 3.15 µM)
- MIC ([3]; host RW583, plasmid PV20tag1 (amber V20 blr)): 1.2 µg/mL (≈ 3.43 µM)
- MIC ([3]; host RW583, plasmid pL24tag1 (amber L24 blr)): 0.13 µg/mL (≈ 0.372 µM)
- MIC ([3]; host RW583, plasmid pRW23C (wild type blr)): 1.1 µg/mL (≈ 3.15 µM)
- MIC ([3]; host RW583, plasmid pUC19-Sp^R (none)): 0.09 µg/mL (≈ 0.258 µM)

Compound: CO/N=C(\C(=O)N[C@@H]1C(=O)N2C(C(=O)[O-])=C(C[N+]3(C)CCCC3)CS[C@H]12)c1csc(N)n1 [Cefepime]
- susceptibility (E-test strip) (AW1045): 0.023
- susceptibility (E-test strip) [1, 4]: 0.023
- susceptibility (E-test strip) ([1]; RW583 + pACYC184 (vector)): <0.016
- susceptibility (E-test strip) [1, 5]: 0.032
- susceptibility (E-test strip) [1, 6]: 0.023
- susceptibility (E-test strip) ([1]; RW583 + pUC19Sp^R (vector)): <0.016
- susceptibility (E-test strip) [1, 7]: <0.016
- susceptibility (E-test strip) (WY100): 0.047
- susceptibility (E-test strip) (AW1045 blr::TnphoA): <0.016
- susceptibility (E-test strip) (WY100 blr::TnphoA): <0.016

Compound: CO[C@@]1(NC(=O)Cc2cccs2)C(=O)N2C(C(=O)O)=C(COC(N)=O)CS[C@@H]21 [Cefoxitin]
- susceptibility (E-test strip) (AW1045): 3
- susceptibility (E-test strip) [1, 4]: 1.5
- susceptibility (E-test strip) ([1]; RW583 + pACYC184 (vector)): 0.75
- susceptibility (E-test strip) [1, 5]: 2
- susceptibility (E-test strip) [1, 6]: 1.5
- susceptibility (E-test strip) ([1]; RW583 + pUC19Sp^R (vector)): 0.75
- susceptibility (E-test strip) [1, 7]: 1.0
- susceptibility (E-test strip) (WY100): 3
- susceptibility (E-test strip) (AW1045 blr::TnphoA): 1.5
- susceptibility (E-test strip) (WY100 blr::TnphoA): 1.5

Compound: CO/N=C(\C(=O)N[C@@H]1C(=O)N2C(C(=O)O)=C(CSc3nc(=O)c(=O)[nH]n3C)CS[C@H]12)c1csc(N)n1 [Ceftriaxone]
- susceptibility (E-test strip) (AW1045): 0.032
- susceptibility (E-test strip) [1, 4]: 0.016
- susceptibility (E-test strip) ([1]; RW583 + pACYC184 (vector)): <0.016
- susceptibility (E-test strip) [1, 5]: 0.023
- susceptibility (E-test strip) [1, 6]: 0.016
- susceptibility (E-test strip) ([1]; RW583 + pUC19Sp^R (vector)): <0.016
- susceptibility (E-test strip) [1, 7]: <0.016
- susceptibility (E-test strip) (WY100): 0.125
- susceptibility (E-test strip) (AW1045 blr::TnphoA): <0.016
- susceptibility (E-test strip) (WY100 blr::TnphoA): 0.32

Compound: C[C@@H](O)[C@H]1C(=O)N2C(C(=O)O)=C(SCCN=CN)C[C@H]12 [Imipene, imipenem]
- susceptibility (E-test strip) (AW1045): 0.38
- susceptibility (E-test strip) [1, 4]: 0.25
- susceptibility (E-test strip) ([1]; RW583 + pACYC184 (vector)): 0.19
- susceptibility (E-test strip) [1, 5]: 0.38
- susceptibility (E-test strip) [1, 6]: 0.19
- susceptibility (E-test strip) ([1]; RW583 + pUC19Sp^R (vector)): 0.125
- susceptibility (E-test strip) [1, 7]: 0.19
- susceptibility (E-test strip) (WY100): 0.25
- susceptibility (E-test strip) (AW1045 blr::TnphoA): 0.125
- susceptibility (E-test strip) (WY100 blr::TnphoA): 0.125

Compound: CCN1CCN(C(=O)N[C@@H](C(=O)N[C@@H]2C(=O)N3[C@@H]2SC(C)(C)[C@@H]3C(=O)O)c2ccccc2)C(=O)C1=O [Pipericillin]
- susceptibility (E-test strip) (AW1045): 1.0
- susceptibility (E-test strip) [1, 4]: 1.0
- susceptibility (E-test strip) ([1]; RW583 + pACYC184 (vector)): 0.25
- susceptibility (E-test strip) [1, 5]: 1.5
- susceptibility (E-test strip) [1, 6]: 1.0
- susceptibility (E-test strip) ([1]; RW583 + pUC19Sp^R (vector)): 1.25
- susceptibility (E-test strip) [1, 7]: 0.25
- susceptibility (E-test strip) (WY100): 1.5
- susceptibility (E-test strip) (AW1045 blr::TnphoA): 0.25
- susceptibility (E-test strip) (WY100 blr::TnphoA): 0.75

Compound: O=C(N[C@H](CO)[C@H](O)c1ccc([N+](=O)[O-])cc1)C(Cl)Cl [chloramphenicol]
- effect of the insertion on susceptibility (RW583): not affected

Compound: C[C@@H]1O[C@@H]1P(=O)(O)O [fosfomycin]
- effect of the insertion on susceptibility (RW583): not affected

Compound: CCn1cc(C(=O)O)c(=O)c2ccc(C)nc21 [nalidixic acid]
- effect of the insertion on susceptibility (RW583): not affected

Compound: CCn1cc(C(=O)O)c(=O)c2cc(F)c(N3CCNCC3)cc21 [norfloxacin]
- effect of the insertion on susceptibility (RW583): not affected

Compound: CC(C)[C@@H]1NC(=O)[C@H](C)OC(=O)[C@@H](C(C)C)NC(=O)[C@@H](C(C)C)OC(=O)[C@H](C(C)C)NC(=O)[C@H](C)OC(=O)[C@@H](C(C)C)NC(=O)[C@@H](C(C)C)OC(=O)[C@H](C(C)C)NC(=O)[C@H](C)OC(=O)[C@@H](C(C)C)NC(=O)[C@@H](C(C)C)OC1=O [valinomycin]
- effect of the insertion on susceptibility (RW583): not affected

Compound: gentamicin
- effect of the insertion on susceptibility (RW583): not affected
